Results from PMC4583449, “Characterisation of (R)-2-(2-Fluorobiphenyl-4-yl)-N-(3-Methylpyridin-2-yl)Propanamide as a Dual Fatty Acid Amide Hydrolase: Cyclooxygenase Inhibitor” (PLoS ONE, 2015).
“And” between values parts separate entries of the source, which are not always exact repeats. Equal values may be shown once. Read-outs that look alike come from different tables or passages of the source.

Key:
Format in all cases: biochemical
[1] = target: T1, ovine COX-1 (Ovis aries, UniProt P05979); assay: COX-1 inhibition, oxygraphic method (oxygen electrode); details: 10 μM arachidonic acid; no preincubation phase; approximate, from initial velocities
T1 construct: purchased Cayman Chemical Co. 60100
T1 sequence (P05979 25-600): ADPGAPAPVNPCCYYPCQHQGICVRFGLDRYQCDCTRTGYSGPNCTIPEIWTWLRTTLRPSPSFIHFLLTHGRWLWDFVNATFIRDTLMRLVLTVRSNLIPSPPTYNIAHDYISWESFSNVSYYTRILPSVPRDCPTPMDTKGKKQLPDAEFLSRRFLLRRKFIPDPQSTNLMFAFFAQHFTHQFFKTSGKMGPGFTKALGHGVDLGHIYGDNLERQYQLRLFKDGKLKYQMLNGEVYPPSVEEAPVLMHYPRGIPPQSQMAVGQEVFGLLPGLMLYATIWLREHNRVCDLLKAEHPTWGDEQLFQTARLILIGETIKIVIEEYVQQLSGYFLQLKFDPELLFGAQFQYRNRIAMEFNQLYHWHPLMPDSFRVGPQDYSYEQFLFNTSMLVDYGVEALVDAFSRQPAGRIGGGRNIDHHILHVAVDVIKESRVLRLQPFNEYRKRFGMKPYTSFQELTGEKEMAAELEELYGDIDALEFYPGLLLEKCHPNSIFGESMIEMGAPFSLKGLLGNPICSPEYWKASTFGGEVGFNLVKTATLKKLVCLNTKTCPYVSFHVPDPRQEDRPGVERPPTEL
Protocol: (§1) The assay was performed according to Meade et al. with minor modifications. An oxygen electrode chamber with integral stirring (Oxygraph System, Hansatech Instruments, King´s Lynn, U.K.) was calibrated daily to ambient temperature and air pressure. The assay buffer contained 0.1 M Tris-HCl buffer pH 7.4, 1 μM haematin, 2 mM phenol, 5 mM EDTA, 10 μM substrate (arachidonic acid or 2-AG) (final assay volume was 2 ml). After addition of (R)- or (S)-Flu-AM1 dissolved in ethanol (final assay concentration 1%), a baseline was established for 5 min before initiation of reaction by addition of 200 units ovine COX-1 or human recombinant COX-2. The change in oxygen consumption as a measurement of enzyme activity was monitored for approximately 5 min.

[2] = target: T2, human recombinant COX-2 (Homo sapiens, UniProt P35354); assay: COX-2 inhibition, oxygraphic method (oxygen electrode); details: no preincubation phase, approximate, from initial velocities
T2 construct: purchased Cayman Chemical Co. 60122
T2 sequence (P35354 18-604): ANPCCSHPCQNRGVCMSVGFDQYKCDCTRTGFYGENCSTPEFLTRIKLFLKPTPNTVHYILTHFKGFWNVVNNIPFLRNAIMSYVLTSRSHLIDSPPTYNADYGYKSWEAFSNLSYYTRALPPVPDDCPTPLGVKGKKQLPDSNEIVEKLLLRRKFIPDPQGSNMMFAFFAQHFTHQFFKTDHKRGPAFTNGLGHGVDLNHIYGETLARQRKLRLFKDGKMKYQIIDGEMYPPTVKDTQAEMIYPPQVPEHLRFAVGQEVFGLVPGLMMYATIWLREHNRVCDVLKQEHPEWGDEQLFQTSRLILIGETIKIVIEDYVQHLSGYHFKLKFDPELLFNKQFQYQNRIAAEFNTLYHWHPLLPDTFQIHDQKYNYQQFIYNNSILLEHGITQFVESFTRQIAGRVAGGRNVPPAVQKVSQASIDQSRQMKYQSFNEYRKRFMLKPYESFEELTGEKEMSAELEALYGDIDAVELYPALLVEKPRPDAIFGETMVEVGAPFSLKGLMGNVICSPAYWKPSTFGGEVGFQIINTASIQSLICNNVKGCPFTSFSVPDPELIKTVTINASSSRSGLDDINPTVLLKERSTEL
Protocol: as §1

[3] = target: T3, mouse brain FAAH (Mus musculus, UniProt O08914); assay: FAAH assay, [3H]AEA hydrolysis in mouse brain homogenates; details: 0.5 μM [3H]AEA; read-out: IC50 inhibition of [3H]AEA hydrolysis in mouse brain homogenates
T3 construct: Brains from male B6CBAF1/J mice, stored at -80°C, were thawed, weighed and homogenized in cold buffer; from tissue; host or cells: brain of male B6CBAF1/J mice (washed membrane pellet homogenate)
T3 sequence (O08914 1-579): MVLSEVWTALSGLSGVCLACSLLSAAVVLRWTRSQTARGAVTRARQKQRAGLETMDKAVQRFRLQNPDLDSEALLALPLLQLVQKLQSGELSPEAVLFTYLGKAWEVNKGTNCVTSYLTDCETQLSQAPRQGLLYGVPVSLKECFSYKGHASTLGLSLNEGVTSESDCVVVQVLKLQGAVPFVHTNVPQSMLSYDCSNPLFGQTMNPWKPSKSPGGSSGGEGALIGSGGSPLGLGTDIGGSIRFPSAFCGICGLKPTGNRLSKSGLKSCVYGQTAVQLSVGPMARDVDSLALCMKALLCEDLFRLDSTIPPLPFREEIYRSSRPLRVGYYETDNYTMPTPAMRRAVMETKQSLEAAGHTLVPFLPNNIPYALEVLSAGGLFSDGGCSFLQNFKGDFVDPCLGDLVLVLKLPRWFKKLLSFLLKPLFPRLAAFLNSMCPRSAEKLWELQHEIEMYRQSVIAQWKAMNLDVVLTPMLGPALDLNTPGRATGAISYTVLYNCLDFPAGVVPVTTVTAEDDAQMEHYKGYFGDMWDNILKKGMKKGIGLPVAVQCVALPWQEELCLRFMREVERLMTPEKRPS
Protocol: Brains from male B6CBAF1/J mice, stored at -80°C, were thawed, weighed and homogenized in cold buffer (20 mM HEPES, 1 mM MgCl2 pH 7.0). Homogenates were centrifuged (35,000 g at 4°C for 20 min) before the pellet was resuspended in cold homogenization buffer. Centrifugation and resuspension was repeated twice. The suspension was incubated at 37°C for 15 min to degrade any endogenous substrate able to interfere with the FAAH assay. After centrifugation (35,000 g at 4°C for 20 min), the pellet was resuspended in cold buffer (50 mM Tris-HCl, 1mM EDTA, 3 mM MgCl2, pH 7.4). The protein concentration was determined according to the Bradford assay after which the samples were frozen in aliquots at -80°C. Ethical permission for the animal experiments was obtained from the local animal research ethical committee (Umeå Ethical Committee for Animal Research, Umeå, Sweden). FAAH was assayed using the method of Boldrup et al., whereby homogenates (0.3 μg protein / assay) in assay buffer (10 mM Tris-HCl, 1mM EDTA, pH 7.4), test compounds and substrate ([^3H]AEA in 10 mM Tris-HCl, 1mM EDTA, pH 7.4 containing 10 mg/ml fatty acid-free bovine serum, assay concentration 0.5 μM unless otherwise stated) were incubated for 10 min at 37°C. Thereafter, 400 μL activated charcoal (80 μL activated charcoal + 320 μL 0.5 M HCl) was added and the samples were placed on ice and centrifuged at 2500 rpm for 10 min. Aliquots (200 μL) of the supernatant was analyzed for tritium content by liquid scintillation spectroscopy with quench correction.

[4] = target: T4, rat brain FAAH (Rattus norvegicus, UniProt P97612); assay: [3H]AEA hydrolysis in rat brain homogenates; details: current authors, unpublished data; read-out: IC50 inhibition of [3H]AEA hydrolysis in rat brain homogenates
T4 construct: the racemate was studied in rat brain homogenates, whereas mouse brain homogenates were used here; from tissue; host or cells: rat brain homogenates
T4 sequence (P97612 1-579): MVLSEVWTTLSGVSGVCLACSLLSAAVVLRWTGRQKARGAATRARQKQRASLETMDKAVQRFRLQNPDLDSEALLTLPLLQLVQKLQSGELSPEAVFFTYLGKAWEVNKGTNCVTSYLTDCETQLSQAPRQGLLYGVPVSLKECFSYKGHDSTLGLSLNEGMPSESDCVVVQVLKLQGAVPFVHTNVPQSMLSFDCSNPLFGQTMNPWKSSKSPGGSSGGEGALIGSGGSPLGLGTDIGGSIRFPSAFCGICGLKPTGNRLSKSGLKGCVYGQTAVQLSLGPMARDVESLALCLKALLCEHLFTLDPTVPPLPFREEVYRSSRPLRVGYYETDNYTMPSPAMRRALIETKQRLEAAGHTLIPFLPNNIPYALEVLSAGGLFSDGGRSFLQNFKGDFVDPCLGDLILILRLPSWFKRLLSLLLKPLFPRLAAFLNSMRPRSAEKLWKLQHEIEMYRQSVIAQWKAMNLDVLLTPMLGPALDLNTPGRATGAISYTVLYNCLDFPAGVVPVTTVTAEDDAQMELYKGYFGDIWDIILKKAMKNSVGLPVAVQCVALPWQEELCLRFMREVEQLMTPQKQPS

Cc1cccnc1NC(=O)[C@@H](C)c1ccc(-c2ccccc2)c(F)c1 [(S)-Flu-AM1]
IC50 [1]: 3000 nM and ~3000 nM | IC50 ([2]; 10 μM 2-AG, read-out: IC50 COX-2 (2-AG)): 700 nM and ~700 nM | IC50 ([2]; 10 μM arachidonic acid, read-out: IC50 COX-2 (arachidonic acid)): 10000 nM and ~10000 nM | IC50 [3]: 11000 nM | IC50 [4]: 990 nM
